According to patent US20230131025A1, “QUINOLYL PHOSPHINE OXIDE COMPOUND, AND COMPOSITION AND APPLICATION THEREOF” (Betta Pharmaceuticals Co., Ltd., priority 2020, published 2023):

Tests used:
[1] = biological target: IGF1R (Homo sapiens, UniProt P08069); experiment: Kinase inhibition assay (mobility shift); type: biochemical
Outline: (§1)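 Caliper mobility-shift read of substrate conversion after kinase-compound preincubation 10 min at room temperature, then ATP/substrate addition and reaction at room temperature. Ten-point 3-fold dilutions from 3,000 or 100 nM top; IC50 from variable-slope four-parameter fit of percent inhibition.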

[2] = biological target: EGFR Δ19del/T790M/C797S (Homo sapiens, UniProt P00533, T790M/C797S, form not given); experiment: Kinase inhibition assay (mobility shift); type: biochemical
Outline: as §1

[3] = biological target: EGFR WT (Homo sapiens, UniProt P00533); experiment: Kinase inhibition assay (mobility shift); type: biochemical
Outline: as §1

[4] = In vivo efficacy data of Comparative example 1 cited from WO2019/015655A1, TGI and ED50 calculated; details: nonlinear fitting of dosage vs TGI calculated from cited data, FIG. 1
Method: Moreover, the data of Comparative example 1 (in the patent WO2019/015655A1) was cited in Table 4, and the TGI of each administration group was calculated. Nonlinear fitting was performed according to the administrating dosage and the tumor growth inhibition rate TGI (%) corresponding to each dosage using GraphPad Prism 8. The fitting formula is as follows and its ED50 (half effective dose) was calculated: Y=Bottom+(Top-Bottom)/(1+10^((Log ED50−X)*HillSlope)).
TGI was calculated according to the administration dosage and tumor growth volume of Comparative example 1. Nonlinear fitting was performed on the administration dosage and corresponding TGI (%). […] It can be seen that the half effective dose of compound J-022, which is 10 mg/kg/day, is equivalent to that of Comparative example 1.

[5] = In vivo safety experiment (body weight, tolerance); details: for Mortality of mice / Body weight of mouse: 75 mg/kg/day oral QD; for Mortality of mice: 7 consecutive days, 5 mice
Method: The safety evaluation of the drug was carried out in BALB/c nude mice. […] They were fed in an SPF environment, and each cage was individually ventilated (5 mice per cage). All cages, bedding and water were disinfected prior to use. Mice were purchased from Viton Lever and were allowed to acclimate in the laboratory. Mice were administered orally QD.

[6] = tested on: human epidermal cancer cells A431 carrying EGFR WT; experiment: Cell proliferation experiment (CellTiter Glo, 72 hours); type: cell-based; details: for IC50: Homo sapiens, A-431
Outline: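 Cells seeded at 2000 or 3000/well and exposed 72 h to 9-point 3-fold dilutions, top final 10000 nM or 1111 nM, 0.1% DMSO. Viability by CellTiter-Glo luminescence. Inhibition relative to cell and medium controls; IC50 by four-parameter nonlinear regression.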

[7] = biological target: Ba/F3 EGFR WT (Homo sapiens, UniProt P00533); experiment: as above; type: cell-based; details: for GI50: read-out: BaF3 EGFR WT IC50
Outline: (§2)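 Ba/F3 cells overexpressing EGFR Δ19del/T790M/C797S or EGFR WT were seeded at 2000 or 3000 cells/well and exposed 72 h to 9 compound concentrations (3-fold, top 10000 or 1111 nM final, 0.1% DMSO). CellTiter-Glo luminescence gave survival inhibition versus controls; IC50 from nonlinear fit.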

[8] = biological target: Ba/F3-Δ19del/T790M/C797S (Homo sapiens, UniProt P00533, T790M/C797S, cells depend on it, form not given); experiment: as above; type: cell-based; details: for GI50: read-out: Ba/F3/EGFR Δ19del/T790M/C797S IC50
Outline: as §2

Ba/F3-Δ19del/T790M/C797S, sequence (P00533 with tags, fused parts or gaps DEL746-750/T790M/C797S, form open): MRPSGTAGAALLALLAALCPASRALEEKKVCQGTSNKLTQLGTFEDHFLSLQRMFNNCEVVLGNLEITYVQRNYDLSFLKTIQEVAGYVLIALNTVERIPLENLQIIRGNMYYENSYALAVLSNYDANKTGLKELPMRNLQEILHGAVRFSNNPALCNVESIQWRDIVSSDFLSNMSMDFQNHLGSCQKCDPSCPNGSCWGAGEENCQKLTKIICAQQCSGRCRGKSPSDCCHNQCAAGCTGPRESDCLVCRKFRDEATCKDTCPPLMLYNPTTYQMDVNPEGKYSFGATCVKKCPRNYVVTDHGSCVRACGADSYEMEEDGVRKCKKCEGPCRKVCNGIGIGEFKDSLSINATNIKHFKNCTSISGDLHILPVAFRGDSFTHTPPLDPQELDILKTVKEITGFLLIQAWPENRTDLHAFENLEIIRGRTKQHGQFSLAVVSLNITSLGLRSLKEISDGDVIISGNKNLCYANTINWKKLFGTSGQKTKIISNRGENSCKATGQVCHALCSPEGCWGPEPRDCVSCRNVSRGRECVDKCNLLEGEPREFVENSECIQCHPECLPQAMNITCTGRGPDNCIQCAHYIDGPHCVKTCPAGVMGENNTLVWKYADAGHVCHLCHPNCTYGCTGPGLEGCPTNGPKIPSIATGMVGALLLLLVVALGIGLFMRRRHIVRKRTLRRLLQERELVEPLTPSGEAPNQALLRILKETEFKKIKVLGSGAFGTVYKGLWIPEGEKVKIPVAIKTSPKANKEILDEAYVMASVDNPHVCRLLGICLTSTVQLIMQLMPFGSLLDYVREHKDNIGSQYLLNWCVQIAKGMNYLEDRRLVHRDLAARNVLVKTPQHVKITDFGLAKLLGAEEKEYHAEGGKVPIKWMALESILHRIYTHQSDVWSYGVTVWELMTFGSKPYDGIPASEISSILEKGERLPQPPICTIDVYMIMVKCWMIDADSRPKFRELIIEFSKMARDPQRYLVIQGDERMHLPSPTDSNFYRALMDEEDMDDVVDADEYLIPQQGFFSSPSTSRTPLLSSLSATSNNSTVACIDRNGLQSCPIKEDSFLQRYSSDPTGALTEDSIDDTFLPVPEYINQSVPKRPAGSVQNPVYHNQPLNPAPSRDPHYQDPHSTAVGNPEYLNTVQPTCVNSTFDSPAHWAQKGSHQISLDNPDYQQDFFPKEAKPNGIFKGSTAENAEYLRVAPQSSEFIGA
EGFR Δ19del/T790M/C797S, sequence (P00533 with tags, fused parts or gaps DEL746-750/T790M/C797S, form open): as above
IGF1R, sequence (P08069 31-1367, species assumed): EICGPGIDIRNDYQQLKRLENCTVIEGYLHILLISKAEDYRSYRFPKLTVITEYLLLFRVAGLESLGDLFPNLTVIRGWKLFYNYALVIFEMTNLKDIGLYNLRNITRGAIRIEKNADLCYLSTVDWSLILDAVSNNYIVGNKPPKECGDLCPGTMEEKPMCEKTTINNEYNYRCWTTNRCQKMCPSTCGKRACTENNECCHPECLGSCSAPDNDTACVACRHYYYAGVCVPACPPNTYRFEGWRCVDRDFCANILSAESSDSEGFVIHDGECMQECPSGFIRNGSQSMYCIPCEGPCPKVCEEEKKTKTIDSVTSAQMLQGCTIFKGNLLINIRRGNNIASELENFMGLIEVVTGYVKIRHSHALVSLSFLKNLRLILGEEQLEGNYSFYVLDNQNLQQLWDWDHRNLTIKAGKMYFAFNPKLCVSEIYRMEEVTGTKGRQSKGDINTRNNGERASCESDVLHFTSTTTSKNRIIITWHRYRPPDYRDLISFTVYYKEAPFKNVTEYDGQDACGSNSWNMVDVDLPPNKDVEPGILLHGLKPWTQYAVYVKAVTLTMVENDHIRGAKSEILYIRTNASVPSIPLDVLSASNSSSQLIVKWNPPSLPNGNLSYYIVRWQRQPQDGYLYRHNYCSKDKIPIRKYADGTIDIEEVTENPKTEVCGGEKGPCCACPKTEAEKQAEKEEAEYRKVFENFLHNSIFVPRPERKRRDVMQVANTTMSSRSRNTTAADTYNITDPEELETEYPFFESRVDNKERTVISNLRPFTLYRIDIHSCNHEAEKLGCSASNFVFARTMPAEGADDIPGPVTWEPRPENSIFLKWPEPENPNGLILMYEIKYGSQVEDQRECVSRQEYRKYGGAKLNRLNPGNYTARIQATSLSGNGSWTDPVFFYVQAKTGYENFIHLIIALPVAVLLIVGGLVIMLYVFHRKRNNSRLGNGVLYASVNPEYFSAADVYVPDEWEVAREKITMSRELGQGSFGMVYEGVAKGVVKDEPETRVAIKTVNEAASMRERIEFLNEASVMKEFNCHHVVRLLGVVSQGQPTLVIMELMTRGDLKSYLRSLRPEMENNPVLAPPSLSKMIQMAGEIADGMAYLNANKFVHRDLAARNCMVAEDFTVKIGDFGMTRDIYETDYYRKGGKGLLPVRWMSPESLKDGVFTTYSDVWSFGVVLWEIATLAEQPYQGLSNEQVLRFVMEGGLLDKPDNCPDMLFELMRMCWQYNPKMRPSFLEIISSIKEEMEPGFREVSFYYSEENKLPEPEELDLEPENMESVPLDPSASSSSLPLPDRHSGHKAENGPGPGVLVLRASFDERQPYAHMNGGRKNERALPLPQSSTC
Ba/F3 EGFR WT, sequence (P00533 whole entry, stated change not applied): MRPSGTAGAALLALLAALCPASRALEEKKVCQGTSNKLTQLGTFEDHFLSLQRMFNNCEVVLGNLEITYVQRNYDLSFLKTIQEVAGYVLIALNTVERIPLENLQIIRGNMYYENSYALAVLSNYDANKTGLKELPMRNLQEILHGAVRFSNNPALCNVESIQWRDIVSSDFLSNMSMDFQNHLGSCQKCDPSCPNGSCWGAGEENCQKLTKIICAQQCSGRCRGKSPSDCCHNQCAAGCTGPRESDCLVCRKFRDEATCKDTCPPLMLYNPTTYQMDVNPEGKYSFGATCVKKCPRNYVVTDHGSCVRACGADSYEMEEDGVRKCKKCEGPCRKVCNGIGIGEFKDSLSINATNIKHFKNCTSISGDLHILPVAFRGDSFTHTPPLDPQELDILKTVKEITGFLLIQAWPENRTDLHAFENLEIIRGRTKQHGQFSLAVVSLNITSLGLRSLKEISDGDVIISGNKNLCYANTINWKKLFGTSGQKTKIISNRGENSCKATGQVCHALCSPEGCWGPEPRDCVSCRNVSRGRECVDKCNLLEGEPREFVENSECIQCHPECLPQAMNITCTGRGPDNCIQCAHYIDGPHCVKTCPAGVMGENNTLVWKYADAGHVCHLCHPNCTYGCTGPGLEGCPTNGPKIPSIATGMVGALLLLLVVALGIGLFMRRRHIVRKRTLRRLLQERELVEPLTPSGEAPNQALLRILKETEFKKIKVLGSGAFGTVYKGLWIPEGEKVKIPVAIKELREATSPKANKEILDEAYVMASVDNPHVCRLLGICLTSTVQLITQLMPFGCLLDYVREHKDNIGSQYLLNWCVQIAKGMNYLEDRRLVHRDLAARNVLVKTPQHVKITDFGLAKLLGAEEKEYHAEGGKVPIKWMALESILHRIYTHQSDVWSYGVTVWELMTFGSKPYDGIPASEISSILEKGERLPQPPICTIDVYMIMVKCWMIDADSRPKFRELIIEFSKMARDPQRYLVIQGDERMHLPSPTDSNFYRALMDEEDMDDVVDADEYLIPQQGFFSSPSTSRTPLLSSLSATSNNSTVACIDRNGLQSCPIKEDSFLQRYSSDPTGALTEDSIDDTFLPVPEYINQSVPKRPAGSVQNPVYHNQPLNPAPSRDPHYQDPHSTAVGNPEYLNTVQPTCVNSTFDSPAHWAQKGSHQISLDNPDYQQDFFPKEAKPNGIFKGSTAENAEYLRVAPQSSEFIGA

IC50 [1] [nM] | IC50 [3] [nM] | GI50 [7] [nM] | GI50 [8] [nM] | IC50 [2] [nM] | IC50 [6] [nM] | SMILES | IGF1R IC50 [1] | EGFR Δ19del/T790M/C797S IC50 [2] | EGFR WT IC50 [3] | half effective dose ED50 (dosage at TGI 50%) [4] [mg/kg/day] | Mortality of mice [5] | Mortality of mice ([5]; listed as Comparative example 1) | Body weight of mouse ([5]; 2 days) | Body weight of mouse ([5]; 4 days) | window from the effective dose to the intolerance dose ([5]; effective dose = dose corresponding to 50% TGI) | A431 IC50 [6] | BaF3 EGFR WT IC50 [7] | Ba/F3/EGFR Δ19del/T790M/C797S IC50 [8]
293 | 19.3 | 238 | 11.7 | 0.3 | 1140 | COc1cc(N2CCC(N3CCN(C)CC3)CC2)c(C#N)cc1Nc1ncc(Br)c(Nc2ccc3nc(C4CC4)ccc3c2P(C)(C)=O)n1 [Compound J-021, 5-((5-Bromo-4-((2-cyclopropyl-5-(dimethylphosphineoxide)quinolin-6-yl)amino)pyrimidin-2-yl)amino)-4-methoxy-2-(4-(4-methylpiperazin-1-yl)piperidin-1-yl)benzonitrile] | – | – | – | – | – | – | – | – | – | – | – | –
25 | 11.5 | 354 | 28.4 | 0.2 | 228 | COc1cc(N2CCC(N3CCN(C)CC3)CC2)c(C)cc1Nc1ncc(Br)c(Nc2ccc3ncccc3c2P(C)(C)=O)n1 [Compound J-041, (6-((5-Bromo-2-((2-methoxy-5-methyl-4-(4-(4-methylpiperazin-1-yl)piperidin-1-yl)phenyl)amino)pyrimidin-4-yl)amino)quinolin-5-yl)dimethylphosphine oxide] | – | – | – | – | – | – | – | – | – | – | – | –

SMILES | IC50 [1] [nM] | IC50 [3] [nM] | GI50 [7] [nM] | GI50 [8] [nM] | IC50 [2] [nM] | IC50 [6] [nM] | IGF1R IC50 [1] | EGFR Δ19del/T790M/C797S IC50 [2] | EGFR WT IC50 [3] | half effective dose ED50 (dosage at TGI 50%) [4] [mg/kg/day] | Mortality of mice [5] | Mortality of mice ([5]; listed as Comparative example 1) | Body weight of mouse ([5]; 2 days) | Body weight of mouse ([5]; 4 days) | window from the effective dose to the intolerance dose ([5]; effective dose = dose corresponding to 50% TGI) | A431 IC50 [6] | BaF3 EGFR WT IC50 [7] | Ba/F3/EGFR Δ19del/T790M/C797S IC50 [8]
CCc1cc(Nc2ncc(Br)c(Nc3ccc4nccnc4c3P(C)(C)=O)n2)c(OC)cc1N1CCC(N2CCN(C)CC2)CC1 [Comparable example 1, reference compound] | 9.5 | 5.1 | 39.9 | 9 | – | – | strong inhibitory activity | strong inhibitory effect | strong inhibitory activity | 8.7 | all the 5 mice died on the 6th day | all mice died of intolerance | began to decrease | decreased significantly | less than 8.6 times | certain inhibitory effect | strong inhibitory effect | strong inhibitory effect
